US6852734B2, “Indole derivatives exhibiting chymase-inhibitory activities and process for preparation thereof” (Meiji Seika Kaisha, Ltd., priority 2000, dated 2005)

Experiments:
[1] = molecular target: T1, active-type human chymase (Homo sapiens, UniProt P23946); assay: Chymase inhibitory activity (Test Example 1; hydrolysis of succinyl-alanyl-histidyl-prolyl-phenylalanyl-p-nitroanilide, absorbance at 405 nm); assay type: biochemical; conditions: recombinant active-type human chymase, 0.5 mM p-nitroanilide substrate, Buffer A pH 8.0, room temperature, 5 minutes; read-out: Chymase inhibitory activity IC50 (molar concentration)
T1 construct: made in house
T1 sequence (P23946 22-247): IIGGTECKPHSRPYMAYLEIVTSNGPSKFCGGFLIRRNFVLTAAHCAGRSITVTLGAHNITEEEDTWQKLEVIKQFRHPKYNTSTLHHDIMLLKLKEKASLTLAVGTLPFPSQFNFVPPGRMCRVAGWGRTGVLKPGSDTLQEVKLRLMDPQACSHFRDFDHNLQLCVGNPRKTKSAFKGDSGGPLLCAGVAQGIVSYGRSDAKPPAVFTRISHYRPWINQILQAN
Procedure: • (a) The preparation of the enzyme chymase was carried out as follows. That is, a recombinant pro-type human chymase to be used had been prepared in accordance with the method of Urata et al's report [“J. Biol. Chem.”, Vol.266, p.17173 (1991)]. Further, the chymase product as preliminarily purified was activated in accordance with the method of Murakami et al's report [“J. Biol. Chem.”, Vol.270, p.2218 (1991)]. The resulting activated chymase product was purified with heparin Sepharose to afford an active-type human chymase. • (b) To 50 μl of Buffer A (comprising 0.5-3.0M NaCl and 50 mM tris-HCl, pH 8.0) containing 1-5 ng of the active-type human chymase as obtained by the above-mentioned methods, was added 2 μl of a solution in […] which contained an indole derivative of this invention as the substance to be tested. Then, to the resultant mixture, there was added 50 μl of Buffer A containing 0.5 mM of succinyl-alanyl-histidyl-prolyl-phenylalanyl-p-nitroanilide (a product of Backem Co.) as the substrate. The resulting reaction mixture was incubated at room temperature for 5 minutes. The chymase inhibitory activity was assessed by measuring the changes in the absorbance of a light at 405 nm of the resulting reaction solution with the passage of time. The chymase inhibitory activity of the indole derivatives tested of this invention was evaluated in term of IC50 values (in molar concentration, M).
The indole derivatives of this invention as tested in this Example are the compounds of Compound No. 003, 021, 026, 027, 030, 076 and 078 shown in Table 1 above.

chymase = molecular target: T2, chymase (Homo sapiens, UniProt P23946); conditions: confirmed in PCT/JP99/06738 (WO 00/32587); cited from earlier work
T2 sequence (P23946 22-247): T1 sequence (P23946 22-247)

Structure (SMILES) | IC50 [1] [nM] | chymase inhibitory activity (in words) (chymase)
CC(=O)NCCc1c(C(c2ccc(O)cc2)c2c(O)c3ccccc3n(C)c2=O)[nH]c2ccccc12 (stereo not shown) [SF2809-II] |  | has a chymase inhibitory activity
Cn1c(=O)c(C(c2ccc(O)cc2)c2[nH]c3ccccc3c2CCO)c(O)c2ccccc21 (stereo not shown) [SF2809-IV] |  | has a chymase inhibitory activity
Cn1c(=O)c(C(c2ccccc2)c2[nH]c3ccccc3c2CCO)c(O)c2ccccc21 (stereo not shown) [SF2809-VI] |  | has a chymase inhibitory activity
CC(=O)NCCc1c(C(c2ccccc2)c2c(O)c3ccccc3n(C)c2=O)[nH]c2ccccc12 (stereo not shown) [SF2809-V] |  | has a chymase inhibitory activity
Cn1c(=O)c(Cc2[nH]c3ccccc3c2CCO)c(O)c2ccccc21 [SF2809-III] |  | has a chymase inhibitory activity
CC(=O)NCCc1c(Cc2c(O)c3ccccc3n(C)c2=O)[nH]c2ccccc12 [SF2809-I] |  | has a chymase inhibitory activity

Further lines, with some results ahead:

IC50 [1] [nM] | Structure (SMILES) | chymase inhibitory activity (in words) (chymase)
2.64 | Cn1c(=O)c(C(c2cccc(F)c2)c2[nH]c3ccccc3c2CCNC(=O)c2cc(C(F)(F)F)cc(C(F)(F)F)c2)c(O)c2ccccc21 (stereo not shown) [compound 003] | 
0.439 | Cn1c(=O)c(C(c2cccc(Br)c2)c2[nH]c3ccccc3c2CCNS(=O)(=O)c2ccc3ccccc3c2)c(O)c2ccccc21 (stereo not shown) [Compound No. 026] | 
0.587 | Cn1c(=O)c(C(c2ccc(OC(F)(F)F)cc2)c2[nH]c3ccccc3c2CCOC(=O)c2ccccc2)c(O)c2ccccc21 (stereo not shown) [Compound No. 030] | 
1.4 | COc1ccc(C(=O)OCCc2c(C(c3ccc(C(F)(F)F)cc3)c3c(O)c4ccccc4n(C)c3=O)[nH]c3ccccc23)cc1OC (stereo not shown) [Compound No. 021] | 
0.893 | CC(=O)OCCc1c(C(c2cccc(Br)c2)c2c(O)c3ncsc3n(C)c2=O)[nH]c2ccccc12 (stereo not shown) [Compound No. 076] | 
5.11 | Cn1c(=O)c(C(c2ccc(OC(F)(F)F)cc2)c2[nH]c3ccccc3c2CCNS(=O)(=O)c2ccc3ccccc3c2)c(O)c2ccccc21 (stereo not shown) [Compound No. 027] | 
1.86 | CC(=O)NCCc1c(C(c2ccccc2OC(C)=O)c2c(O)c3ccccc3n(C)c2=O)[nH]c2ccccc12 (stereo not shown) [Compound No. 078] | 
